This is an account of results in publication PMC4970648, “Studies on 16α-Hydroxylation of Steroid Molecules and Regioselective Binding Mode in Homology-Modeled Cytochrome P450-2C11” (International Journal of Medicinal Chemistry, 2010).

A value given as a limit tells only on which side of the number the result lay.

The target of one data set is [3H]PROG 16α-hydroxylating activity by male rat liver microsomes (CYP2C11) (Rattus norvegicus, UniProt P08683). The data set is described as follows: Inhibition of [3H]progesterone 16α-hydroxylation by adult male rat liver microsomes. To be noted: 40% inhibition not reached at 10 μM of unlabeled steroid; male rat liver microsomes. On the procedure: Approximately 95-day-old male Wistar rats, castrated on the 70th day after birth, were used. The liver microsomes were prepared as previously described. The experiments were performed according to instrumental guidelines for the care and use of laboratory animals.
[3H]PROG 16α-hydroxylating activity by male rat liver microsomes (CYP2C11), sequence (P08683 whole entry): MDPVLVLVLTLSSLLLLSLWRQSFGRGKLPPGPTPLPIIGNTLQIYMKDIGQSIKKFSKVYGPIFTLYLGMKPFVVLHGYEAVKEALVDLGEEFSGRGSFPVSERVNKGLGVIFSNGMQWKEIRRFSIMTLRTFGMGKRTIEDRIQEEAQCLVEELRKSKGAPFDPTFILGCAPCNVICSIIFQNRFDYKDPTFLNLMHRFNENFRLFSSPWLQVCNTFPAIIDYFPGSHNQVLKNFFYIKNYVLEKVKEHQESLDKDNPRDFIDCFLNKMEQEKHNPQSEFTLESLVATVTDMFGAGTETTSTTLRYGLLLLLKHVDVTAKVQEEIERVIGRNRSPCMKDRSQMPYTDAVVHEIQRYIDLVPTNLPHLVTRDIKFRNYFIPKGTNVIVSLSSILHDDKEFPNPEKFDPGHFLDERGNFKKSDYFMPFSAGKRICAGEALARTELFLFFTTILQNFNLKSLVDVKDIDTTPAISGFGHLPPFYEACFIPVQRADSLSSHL
The metabolism by rat liver microsomes were examined, according to our previously described procedure. Briefly, the microsomal suspension (400–600 μg of protein/2.2 mL, total volume of the reaction mixture) was preincubated with [3H]PROG (20 nM) under the absence or presence of an unlabeled steroid (0.01–10 μM) at 36°C for 30 min. […] After the incubation, two identical samples were mixed and extracted with toluene. The toluene-extractable [3H]PROG metabolites (more than 90%) were isolated by various paper chromatographic systems and then identified by recrysallization method. Other miscellaneous procedures are described in our previous papers.
Take `C[C@]12CC[C@H](OS(=O)(=O)O)CC1=CC[C@@H]1[C@@H]2CC[C@]2(C)C(=O)CC[C@@H]12` [compound 44, Dehydroepiandrosterone-3-sulfate]: the “[3H]PROG16α-hydroxylation (IC40), given as bound in μM” value is above 10 µM.
The same measure, in the same setting: next, `C[C@@]12CCC[C@H]1[C@@H]1CC[C@H]3CCCC[C@]3(C)[C@H]1CC2` [compound 46, 5α-Androstane]: above 10 µM; `C[C@@]12CCC[C@H]1[C@@H]1CC[C@@H]3CCCC[C@]3(C)[C@H]1CC2` [compound 47, 5β-Androstane]: above 10 µM; `C[C@]12CCCC[C@@H]1CC[C@@H]1[C@@H]2CC[C@]2(C)[C@@H](O)CC[C@@H]12` [compound 52, 5α-Androstan-17β-ol]: above 10 µM.
With `C[C@]12CC[C@@H](O)C[C@@H]1CC[C@@H]1[C@@H]2CC[C@]2(C)[C@@H](OS(=O)(=O)O)CC[C@@H]12` [compound 64, 5α-Androstan-3α,17β-diol-17-sulfate], the “[3H]PROG16α-hydroxylation (IC40), given as bound in μM” value was above 10 µM.

Staying with this data set, now noted: molar concentration of unlabeled steroid causing 40% inhibition; [3H]PROG 20 nM; unlabeled steroid 0.01–10 μM; male rat liver microsomes.
On to `C[C@]12CC[C@H]3[C@@H](CC=C4C[C@@H](O)CC[C@@]43C)[C@@H]1CC[C@@H]2O` [compound 45, 5-Androstenediol], for which the “[3H]PROG16α-hydroxylation (IC40)” value is 640 nM.
On the same count and under the same terms, next, `C[C@@]12CCC[C@H]1[C@@H]1CC[C@H]3C[C@H](O)CC[C@]3(C)[C@H]1CC2` [compound 48, 5α-Androstan-3α-ol]: 1030 nM.
Same read-out and setting: next, `C[C@@]12CCC[C@H]1[C@@H]1CC[C@H]3C[C@@H](O)CC[C@]3(C)[C@H]1CC2` [compound 49, 5α-Androstan-3β-ol]: 650 nM; `C[C@@]12CCC[C@H]1[C@@H]1CC[C@@H]3C[C@H](O)CC[C@]3(C)[C@H]1CC2` [compound 50, 5β-Androstan-3α-ol]: 510 nM.
In the case of `C[C@@]12CCC[C@H]1[C@@H]1CC[C@@H]3C[C@@H](O)CC[C@]3(C)[C@H]1CC2` [compound 51, 5β-Androstan-3β-ol], the “[3H]PROG16α-hydroxylation (IC40)” value was found to be 160 nM.
Same read-out and setting: next, `C[C@]12CCCC[C@H]1CC[C@@H]1[C@@H]2CC[C@]2(C)[C@@H](O)CC[C@@H]12` [compound 53, 5β-Androstan-17β-ol]: 365 nM.
For `C[C@]12CCC(=O)C[C@@H]1CC[C@@H]1[C@@H]2CC[C@]2(C)C(=O)CC[C@@H]12` [compound 54, 5α-Androstan-3,17-dione], the “[3H]PROG16α-hydroxylation (IC40)” value amounted to 650 nM.
With `C[C@]12CCC(=O)C[C@H]1CC[C@@H]1[C@@H]2CC[C@]2(C)C(=O)CC[C@@H]12` [compound 55, 5β-Androstan-3,17-dione], the “[3H]PROG16α-hydroxylation (IC40)” value was found to be 480 nM.
Turning to `C[C@]12CC[C@@H](O)C[C@@H]1CC[C@@H]1[C@@H]2CC[C@]2(C)[C@@H](O)CC[C@@H]12` [compound 62, 5α-Androstan-3α,17β-diol], the “[3H]PROG16α-hydroxylation (IC40)” value came to 125 nM.
Consider `CC(=O)O[C@H]1CC[C@H]2[C@@H]3CC[C@H]4C[C@H](O)CC[C@]4(C)[C@H]3CC[C@]12C` [compound 63, 5α-Androstan-3α,17β-diol-17-acetate], for which the “[3H]PROG16α-hydroxylation (IC40)” value came to 300 nM.
As to `C[C@]12CC[C@H](O)C[C@@H]1CC[C@@H]1[C@@H]2CC[C@]2(C)[C@@H](O)CC[C@@H]12` [compound 65, 5α-Androstan-3β,17β-diol], the “[3H]PROG16α-hydroxylation (IC40)” value worked out at 1110 nM.
`C[C@]12CC[C@@H](O)C[C@H]1CC[C@@H]1[C@@H]2CC[C@]2(C)[C@@H](O)CC[C@@H]12` [compound 66, 5β-Androstan-3 α,17 β -diol]: the “[3H]PROG16α-hydroxylation (IC40)” value turned out to be 69 nM.
With `C[C@]12CC[C@@H](O)C[C@H]1CC[C@@H]1[C@@H]2CC[C@]2(C)[C@@H](C(=O)O)CC[C@@H]12` [compound 67, 5β-Androstan-3α-ol-17β-carboxylic acid], the “[3H]PROG16α-hydroxylation (IC40)” value stood at 360 nM.
Still for that read-out and setting: next, `COC(=O)[C@@H]1C[C@@H](O)C[C@H]2CC[C@H]3[C@@H]4CCC[C@@]4(C)CC[C@@H]3[C@]21C` [compound 68, 5β-Androstan-3α-ol-1β-carboxylic acid methyl ester]: 43 nM; `C[C@]12CC[C@H](O)C[C@H]1CC[C@@H]1[C@@H]2CC[C@]2(C)[C@@H](O)CC[C@@H]12` [compound 69, 5β-Androstan-3β,17β-diol]: 320 nM.
